This note sets out measurements from US11433090B2, “mTOR-inhibitor-containing medicine for treating or preventing ophthalmic symptoms, disorders, or diseases, and application thereof” (The Doshisha, priority 2017, dated 2022).

The subject of data set [1] is mTOR. The data set can be described thus: mTOR expression at protein level in iFECD (western blot). The class given is cell-based, human. To be noted: 3 pmol mTOR siRNA, FIG. 6. As to the method: (§1) The medium was removed from a culture dish in which iFECDs were being cultured, and the cells were supplemented with 1×PBS (−) that was preheated to 37° C., and were washed. This was repeated twice. The cells were supplemented again with 1×PBS (−) and incubated for 3 minutes at 37° C. (5% CO2). After removing the PBS (−), the cells were supplemented with 0.05% Trypsin-EDTA (Nacalai Tesque, 32778-34) and incubated for 5 minutes at 37° C. (5% CO2). The cells were then suspended in a medium, and collected by centrifugation at 1500 rpm for 3 minutes. DMEM (Nacalai Tesque, 08456-36)+10% FBS (Biowest, S1820-500)+1% P/S (Nacalai Tesque, 26252-94) was used as the medium.
(§2) iFECDs were seeded on a 12-well plate at a ratio of 3×10^4 cells per well and cultured for 24 hours at 37° C. (5% CO2) (medium: DMEM+10% FBS+1% P/S). After 24 hours, the medium was removed. Lipofectamine (invitrogen, 92008) and 3 pmol of mTOR siRNA (Ambion, AS026M0L) were added to culture the cells for 24 hours (medium: OptiMEM-I (invitrogen, 31985-088)). The mTOR siRNA that was used has a sense strand set forth in SEQ ID NO: 1 and an antisense strand set forth in SEQ ID NO: 2. […]
5 μg of the extracted protein was separated by SDS-PAGE and transferred onto a nitrocellulose membrane. […] The detected band strength was analyzed with a lumino image analyzer LAS-4000 mini (Fuji Film) and ImageQuant™ software (GE Healthcare).

Data set [2] has as its system mTOR. Put plainly: mTOR expression at RNA level in iFECD (PCR, agarose gel electrophoresis). To be noted: 3 pmol mTOR siRNA, FIG. 6. Format: cell-based, human. As to the method: as §1
as §2, with “2. After 24 hours, the medium was removed to culture the cells for 72 hours at 37° C. (5% CO2) (medium: DMEM+10% FBS+1% P/S). After 72 hours, the medium was removed.” for “2.”

With “mTOR siRNA: siRNA against mTOR gene (Ambion, AS026M0L); sense strand SEQ ID NO: 1, antisense strand SEQ ID NO: 2 (sense CAUUCGCAUUCAGUCCAUATT; antisense UAUGGACUGAAUGCGAAUGAT; chemistry not given here)”, in the data set on mTOR [1], the “mTOR expression, protein level (western blot)” value is listed as “suppression was found”. Moreover, the “mTOR expression, RNA level (PCR)” value in the data set on mTOR [2] is recorded as “suppression was found”.
